Numbers after ± are expanded uncertainties.

Data set [1] can be described thus: wn = mass fraction of the nth substance listed. Particulars: 298.2 K, 100 kPa, Liquid, Vibrating tube method.
Data set [2] is described as follows: refractive index (Na D-line) (dimensionless); wn = mass fraction of the nth substance listed. Particulars: 298.2 K, 100 kPa, Liquid, Standard Abbe refractometry.
The conditions of data set [3]: 298.2 K; 101.33 kPa; Liquid; Vibrating tube method.
Data set [4] in a line: refractive index (Na D-line) (dimensionless). Particulars: 298.2 K; 101.33 kPa; Liquid; Standard Abbe refractometry.

One may read the mass density as the mass of a sample divided by its volume. A word on the refractive index: it is a measure of how strongly the sample bends light. Consider `CCCC(C)O` (stereo not given) [pentan-2-ol] + O, for which the mass density in data set [1] (w2 = 0.1177) is 827.45 ± 3.5 kg/m3; in data set [1] (w2 = 0.9477) it was 989.77 ± 3.8 kg/m3. In addition, the values for the refractive index in data set [2] (w2 = 0.1177) and in data set [2] (w2 = 0.9477) were 1.3992 ± 0.0036 and 1.3377 ± 0.0036, respectively.

`CCCC(C)O` (stereo not given) [pentan-2-ol]: the mass density in data set [3] is 805.37 ± 1.9 kg/m3. Besides, in data set [4], the refractive index is 1.4044 ± 0.0032.

With `CCCCO` [butan-1-ol] + O, the mass density was found to be 844.74 ± 3.5 kg/m3 in data set [1] (w2 = 0.2058) and 986.16 ± 3.8 kg/m3 in data set [1] (w2 = 0.9265). In addition, the refractive index is reported as 1.3885 ± 0.0036 in data set [2] (w2 = 0.2058) and 1.3402 ± 0.0036 in data set [2] (w2 = 0.9265).

As for `CCC(C)O` (stereo not given) [butan-2-ol] + O, the mass density in data set [1] (w2 = 0.3523) worked out at 874.34 ± 3.6 kg/m3; in data set [1] (w2 = 0.8131), 968.42 ± 3.7 kg/m3. For the same compound, the refractive index in data set [2] (w2 = 0.3523) is recorded as 1.3812 ± 0.0036; in data set [2] (w2 = 0.8131), 1.3513 ± 0.0036.

With `CCCCO` [butan-1-ol], in data set [3], the mass density turned out to be 805.81 ± 1.9 kg/m3. Moreover, the refractive index in data set [4] is listed as 1.3973 ± 0.0032.

Regarding `O` [water], the mass density in data set [3] is listed as 997.17 ± 1.9 kg/m3. In data set [4], the refractive index amounted to 1.3325 ± 0.0032.

`CCC(C)O` (stereo not given) [butan-2-ol]: the mass density in data set [3] was 802.49 ± 0.95 kg/m3. Besides, the refractive index in data set [4] was 1.3952 ± 0.0016.

Source of the values: the NIST ThermoML archive (doi:10.1016/j.jct.2017.03.019).
